According to publication PMC5768729, “A partially-open inward-facing intermediate conformation of LeuT is associated with Na^+ release and substrate transport” (Nature Communications, 2018):

How the values were obtained:
LeuT [1] = test: Scintillation proximity assay, time course of 3H-substrate binding to LeuT with or without Na+ pre-incubation; parameters: species or system Aquifex aeolicus; details: 3H-Leu 100 nM or 3H-Ala 500 nM, LeuT wild type
Description: We bound ^3H-leucine (140 Ci mmol^–1; Moravek) to purified LeuT-variants using the scintillation proximity assay (SPA) as described[17],[18] with 25 ng of purified protein per assay in buffer composed of 50 mM Tris/Mes (pH 8.0), 100 mM NaCl, 1 mM TCEP, 20% glycerol and 1 mM DDM.
Supplementary Figure 5. Pre-incubation of LeuT with Na+ modulates substrate binding.
The time course of binding of (a,c,d) 3H-Leu (100 nM) or (b) 3H-Ala (500 nM) to LeuT wild type (WT; a,b) or LeuT-L400S (c) or -F253A (d) in the absence (open black squares) or presence (filled red circles) of Na+ was measured using the scintillation proximity assay4 (see Methods). Data are shown as mean ± s.e.m. of three technical replicates of a representative experiment performed in parallel (experiments with individual mutants were repeated ≥ 2) and normalized with regard to the steady state level of LeuT-WT. […]

LeuT [2] = test: smFRET imaging of intracellular-labeled LeuT (H7C/R86C), FRET state occupancy and dynamics; type: biochemical, Aquifex aeolicus
Description: Fluorescence experiments were performed using a prism-based total internal reflection fluorescence (TIRF) microscope as previously described[15],[16]. Microfluidic imaging chambers passivated with a mixture of PEG and biotin-PEG were prepared with 0.8 µM streptavidin (Invitrogen) and 4 nM biotin-tris-(NTA-Ni^2+)[46]. Fluorophore labeled, His-tagged LeuT molecules were reversibly immobilized to the surface-associated Ni^2+ atoms. LD550 (Cy3) fluorophores were excited by the evanescent wave generated by total internal reflection (TIR) of a 532 nm diode-pumped solid state laser (Opus, Laser Quantum). Photons emitted from LD550 (Cy3) and LD650 (Cy5) were collected using a 1.27 NA 60 × PlanApo water-immersion objective (Nikon) and a MultiCam-LS device (Cairn) with a T635lpxr-UF2 dichroic mirror (Chroma) to separate the spectral channels onto two synchronized sCMOS cameras (Flash 4.0 v2, Hamamatsu). Fluorescence data were acquired using custom software implemented in LabView (National Instruments) at 10 frames per second (100 ms time resolution).
Unless otherwise specified, all experiments were performed at 25 °C in buffer containing 50 mM Tris/Mes (pH 7.0), 10% glycerol, 1 mM DDM (Anatrace), 1 mM 2-mercaptoethanol and 200 mM total salt (KCl and NaCl, as specified). An oxygen-scavenging environment consisting of 0.2 units per ml purified glucose oxidase (Sigma G2133), 1.8 units per μl purified catalase (Sigma C40), 0.1% (v/v) glucose was used in all experiments to minimize photobleaching.
(§1) Analysis of single-molecule fluorescence data was performed using custom software written in MATLAB (MathWorks)[22]. […] FRET traces were calculated as EFRET=IA∕(IA+ID) , where IA and ID are the donor and acceptor fluorescence traces, and set to zero whenever the donor was in the dark state. […] SNRSignal (12:1 on average) is the signal magnitude relative to noise within the fluorescence trace prior to photobleaching, which includes all noise sources, including photon statistics and photophysical noise, in addition to background noise. […]

LeuT [3] = test: smFRET imaging of extracellular-labeled LeuT (K239C/H480C), FRET state occupancy and dynamics; type: biochemical, Aquifex aeolicus; details: no substrate
Description: Fluorescence experiments were performed using a prism-based total internal reflection fluorescence (TIRF) microscope as previously described[15],[16]. Microfluidic imaging chambers passivated with a mixture of PEG and biotin-PEG were prepared with 0.8 µM streptavidin (Invitrogen) and 4 nM biotin-tris-(NTA-Ni^2+)[46]. Fluorophore labeled, His-tagged LeuT molecules were reversibly immobilized to the surface-associated Ni^2+ atoms. LD550 (Cy3) fluorophores were excited by the evanescent wave generated by total internal reflection (TIR) of a 532 nm diode-pumped solid state laser (Opus, Laser Quantum). […] Fluorescence data were acquired using custom software implemented in LabView (National Instruments) at 10 frames per second (100 ms time resolution). […]
as §1

## C[C@H](N)C(=O)O [Ala, alanine]
LeuT [1]
  Effect of pre-incubating LeuT with Na+ on the rate of substrate binding: no such delay in binding

## CC(C)C[C@H](N)C(=O)O [Leu, leucine]
LeuT [1]
  Effect of pre-incubating LeuT with Na+ on the rate of substrate binding: dramatically slowed

## [Li+] [Li^+]
LeuT [2]; LiCl titration in the presence of 250 μM Ala, Hill coefficient fixed at 2.0, read-out: EC50 of dose-response fit of intracellular high-FRET state occupancy
  EC50: 100 mM
LeuT [2]; LiCl titration in the presence of 250 μM Ala, Hill coefficient fixed at 2.0, read-out: EC50 of dose-response fit of intracellular intermediate-FRET state occupancy
  EC50: 67 mM
LeuT [3]; extracellular side
  EC50 for inducing high-FRET state stabilization, fold higher than for Na+: seven-fold higher

## [Na+] [Na^+, sodium]
LeuT [2]; NaCl titration in the presence of 250 μM Ala, read-out: EC50 values of dose-response fits of intracellular low-, intermediate- and high-FRET state occupancies
  EC50: 8 to 20 mM
LeuT [3]; Na+ titration, Hill coefficient fixed at 2.0, read-out: EC50 of dose-response fit of extracellular FRET state occupancy
  EC50: 55 mM
